Measured values published in patent publication US7833967B2, “Synthetic antimicrobial polypeptides” (priority 2003, dated 2010).
Ends that are not written are not given here.

test system: E. coli TOP10; assay: Suicide expression system (SES) growth inhibition; type: cell-based; details: Table 5; mixed-motif library, re-tested in the Bioscreen C

| Substance | Growth inhibition (%) |
| --- | --- |
| 262 (RRRPPRLPRPIPVRPPPRLPRPVPLRP; Synthetic antimicrobial peptide) [compound 262] | 93 |
| 263 (RRRPPRLPRPIPVRPPPRVPRPIPLRP; Synthetic antimicrobial peptide) [compound 263] | 94 |
| 264 (RRRPPRLPRPLPFRPPPRFPRPVPVRP; Synthetic antimicrobial peptide) [compound 264] | 92 |
| 265 (RRRPPRLPRPLPFRPPPRLPRPFPVRP; Synthetic antimicrobial peptide) [compound 265] | 94 |
| 266 (RRRPPRLPRPLPFRPPPRLPRPVPVRP; Synthetic antimicrobial peptide) [compound 266] | 94 |
| 267 (RRRPPRLPRPLPFRPPPRVPRPFPIRP; Synthetic antimicrobial peptide) [compound 267] | 94 |
| 268 (RRRPPRLPRPLPFRPPPRVPRPVPLRP; Synthetic antimicrobial peptide) [compound 268] | 93 |
| 269 (RRRPPRLPRPLPFRPPPRVPRPVPVRP; Synthetic antimicrobial peptide) [compound 269] | 90 |
| 270 (RRRPPRLPRPLPFRPPPRVPRPVPVRP; Synthetic antimicrobial peptide) [compound 270] | 90 |
| 271 (RRRPPRLPRPLPFRPPPRVPRPVPVRP; Synthetic antimicrobial peptide) [compound 271] | 97 |
| 272 (RRRPPRLPRPLPIRPPPRFPRPIPVRP; Synthetic antimicrobial peptide) [compound 272] | 91 |
| 273 (RRRPPRLPRPLPIRPPPRFPRPVPLRP; Synthetic antimicrobial peptide) [compound 273] | 92 |
| 274 (RRRPPRLPRPLPIRPPPRFPRPVPVRP; Synthetic antimicrobial peptide) [compound 274] | 93 |
| 275 (RRRPPRLPRPLPIRPPPRLPRPFPVRP; Synthetic antimicrobial peptide) [compound 275] | 92 |
| 276 (RRRPPRLPRPLPIRPPPRLPRPVPVRP; Synthetic antimicrobial peptide) [compound 276] | 94 |
| 277 (RRRPPRLPRPLPIRPPPRVPRPFPIRP; Synthetic antimicrobial peptide) [compound 277] | 91 |
| 278 (RRRPPRLPRPLPIRPPPRVPRPLPFRP; Synthetic antimicrobial peptide) [compound 278] | 98 |
| 279 (RRRPPRLPRPLPIRPPPRVPRPLPLRP; Synthetic antimicrobial peptide) [compound 279] | 91 |
| 280 (RRRPPRLPRPLPLRPPPRFPRPFPVRP; Synthetic antimicrobial peptide) [compound 280] | 97 |
| 281 (RRRPPRLPRPLPLRPPPRFPRPVPLRP; Synthetic antimicrobial peptide) [compound 281] | 91 |

| Substance | Growth inhibition (%) |
| --- | --- |
| 282 (RRRPPRLPRPLPLRPPPRLPHPIPFRP; Synthetic antimicrobial peptide) [compound 282] | 95 |
| 283 (RRRPPRLPRPLPVRPPPRFPRPVPFRP; Synthetic antimicrobial peptide) [compound 283] | 95 |
| 284 (RRRPPRLPRPLPVRPPPRFPRPVPVRP; Synthetic antimicrobial peptide) [compound 284] | 89 |
| 285 (RRRPPRLPRPLPVRPPPRIPRPFPVRP; Synthetic antimicrobial peptide) [compound 285] | 91 |
| 286 (RRRPPRLPRPLPVRPPPRIPRPLPLRP; Synthetic antimicrobial peptide) [compound 286] | 95 |
| 287 (RRRPPRLPRPLPVRPPPRLPRPIPIRP; Synthetic antimicrobial peptide) [compound 287] | 95 |
| 288 (RRRPPRLPRPLPVRPPPRVPRPFPLRP; Synthetic antimicrobial peptide) [compound 288] | 96 |
| 289 (RRRPPRLPRPLPVRPPPRVPRPFPVRP; Synthetic antimicrobial peptide) [compound 289] | 95 |
| 290 (RRRPPRLPRPLPVRPPPRVPRPLPLRP; Synthetic antimicrobial peptide) [compound 290] | 94 |
| 291 (RRRPPRLPRPLPVRPPPRVPRPVPFRP; Synthetic antimicrobial peptide) [compound 291] | 90 |
| 292 (RRRPPRLPRPLPVRPPPRVPRPVPFRP; Synthetic antimicrobial peptide) [compound 292] | 93 |
| 293 (RRRPPRLPRPVPFRPPPRFPRPFPIRP; Synthetic antimicrobial peptide) [compound 293] | 93 |
| 294 (RRRPPRLPRPVPFRPPPRFPRPVPLRP; Synthetic antimicrobial peptide) [compound 294] | 95 |
| 295 (RRRPPRLPRPVPFRPPPRIPRPFPLRP; Synthetic antimicrobial peptide) [compound 295] | 59 |
| 296 (RRRPPRLPRPVPFRPPPRVPRPIPFRP; Synthetic antimicrobial peptide) [compound 296] | 88 |
| 297 (RRRPPRLPRPVPFRPPPRVPRPIPVRP; Synthetic antimicrobial peptide) [compound 297] | 90 |
| 298 (RRRPPRLPRPVPFRPPPRVPRPVPLRP; Synthetic antimicrobial peptide) [compound 298] | 92 |
| 299 (RRRPPRLPRPVPIRPPPRFPRPIPFRP; Synthetic antimicrobial peptide) [compound 299] | 96 |
| 300 (RRRPPRLPRPVPIRPPPRIPRPIPFRP; Synthetic antimicrobial peptide) [compound 300] | 92 |
| 301 (RRRPPRLPRPVPIRPPPRVPRPVPLRP; Synthetic antimicrobial peptide) [compound 301] | 92 |

| Substance | Growth inhibition (%) |
| --- | --- |
| 302 (RRRPPRLPRPVPLRPPPRFPRPVPVRP; Synthetic antimicrobial peptide) [compound 302] | 82 |
| 303 (RRRPPRLPRPVPLRPPPRVPRPLPIRP; Synthetic antimicrobial peptide) [compound 303] | 91 |
| 304 (RRRPPRLPRPVPVRPPPRFPRPVPIRP; Synthetic antimicrobial peptide) [compound 304] | 90 |
| 305 (RRRPPRLPRPVPVRPPPRFPRPVPVRP; Synthetic antimicrobial peptide) [compound 305] | 90 |
| 306 (RRRPPRLPRPVPVRPPPRFPRPVPVRP; Synthetic antimicrobial peptide) [compound 306] | 90 |
| 307 (RRRPPRLPRPVPVRPPPRVPRPVPFRP; Synthetic antimicrobial peptide) [compound 307] | 92 |
| 308 (RRRPPRLPRPVPVRPPPRVPRPVPVRP; Synthetic antimicrobial peptide) [compound 308] | 96 |
| 309 (RRRPPRVPRPFPIRPPPRVPRPIPFRP; Synthetic antimicrobial peptide) [compound 309] | 76 |
| 310 (RRRPPRVPRPFPIRPPPRVPRPVPVRP; Synthetic antimicrobial peptide) [compound 310] | 93 |
| 311 (RRRPPRVPRPFPVRPPPRFPRPVPFRP; Synthetic antimicrobial peptide) [compound 311] | 96 |
| 312 (RRRPPRVPRPIPIRPPPRVPRPVPFRP; Synthetic antimicrobial peptide) [compound 312] | 93 |
| 313 (RRRPPRVPRPIPIRPPPRVPRPVPVRP; Synthetic antimicrobial peptide) [compound 313] | 92 |
| 314 (RRRPPRVPRPLPFRPPPRFPRPIPFRP; Synthetic antimicrobial peptide) [compound 314] | 94 |
| 315 (RRRPPRVPRPVPVRPPPRIPRPFPVRP; Synthetic antimicrobial peptide) [compound 315] | 98 |
| 316 (RRRTRHVFARPFPFRPPPRIPRPFPLRP; Synthetic antimicrobial peptide) [compound 316] | 97 |
| 317 (RRRTRHVFARPVPVRPPPRVPRPFPVRP; Synthetic antimicrobial peptide) [compound 317] | 95 |
| 318 (RRRTRHVVPRPLPVRPPPRVPRPFPLRP; Synthetic antimicrobial peptide) [compound 318] | 93 |
| 319 (RRRPPRVPRPFPVRPPPRVPRPIPFVHNCSRTKTHLRRGSE; Synthetic antimicrobial peptide) [compound 319] | 93 |

test system: human red blood cells (hRBC); assay: not given; type: cell-based; details: red cells of human, 47 micrograms/ml
Protocol: The ability of the antimicrobial peptides to lyse human red blood cells (hRBC) was analyzed. The Red Blood Cell Test assay provides a simple test system that assesses the membranolytic activity of test materials. It is suitable as a screening assay for hemolytic properties. Hemoglobin release is a useful endpoint of cell membrane integrity. Released hemoglobin is detected by measuring absorbance at 540 nm. Normally, the concentration resulting in 50% hemolysis relative to a totally lysed sample (HL50) would be calculated; however due to the low hemolytic activity of the tested peptides, this was not done in this Example. An 8% RBC suspension (12 days old) was used in the present test setup.
Since the peptides were dissolved in 0.01% acetic acid, vehicle control of the 0.01% acetic acid was included. PBS with 25%, 10%, and 5% 0.01% acetic acid was included on both plates.
To verify that a dose/response effect exists, the hemolytic activity of SDS was also tested.

| Substance | Hemolysis (%) |
| --- | --- |
| RRRPFRPPFRPPFRPPVRPPVRPPFRP [SEQ ID NO: 79] | 16 |
| RRRPPRLPRPFPVRPPPRFPRPFPLRP [SEQ ID NO: 239] | 19 |

same assay, conditions: red cells of human, 94 micrograms/ml

| Substance | Hemolysis (%) |
| --- | --- |
| RRRPFRPPFRPPFRPPVRPPVRPPFRP [SEQ ID NO: 79] | 16 |
| RRRPPRLPRPFPVRPPPRFPRPFPLRP [SEQ ID NO: 239] | 16 |

same assay, conditions: red cells of human, 188 micrograms/ml

| Substance | Hemolysis (%) |
| --- | --- |
| RRRPFRPPFRPPFRPPVRPPVRPPFRP [SEQ ID NO: 79] | 17 |
| RRRPPRLPRPFPVRPPPRFPRPFPLRP [SEQ ID NO: 239] | 16 |

same assay, conditions: red cells of human, 375 micrograms/ml

| Substance | Hemolysis (%) |
| --- | --- |
| RRRPFRPPFRPPFRPPVRPPVRPPFRP [SEQ ID NO: 79] | 17 |
| RRRPPRLPRPFPVRPPPRFPRPFPLRP [SEQ ID NO: 239] | 18 |
